Where “and” joins values, the source holds several entries; their conditions need not be identical. Equal entries are not always repeated. Entries after “also recorded” stand apart in the source; their conditions may differ.
How the values were obtained:
[1] = test system: primary human peripheral blood mononuclear (PBM) cells; assay: Cellular uptake and intracellular phosphorylation, PBM cells; type: cell-based
Text: Carboranyl-containing nucleosides and oligonucleotides, which are lipophilic and have a high content of boron atoms, are particularly suited for use in BNCT of urogenital tumors. Preferred compounds include 5-carboranyl-2'-deoxyuridine (CDU) and 5-o-carboranyl-1-(2-deoxy-2-fluoro-β-D-arabinofuranosyl)uracil (CFAU). […] The entrapment of this molecule in cells allows for the enhancement of the tumor-to-blood ratio for BNCT. CFAU has increased glycosidic bond stability conferred by the β-fluorine group positioned on the 2'-carbon of the nucleoside.
It has been discovered that boron neutron capture therapy, optionally combined with antisense oligonucleotide therapy, can be used in the treatment of urogenital cancer, and in particular, that of the prostate, bladder, and kidney. Any boron-containing compound that is sufficiently lipophilic to pass through the appropriate urogenital membranes in a quantity high enough to achieve therapy on irradiation with low-energy neutrons can be used. Carboranyl-containing nucleosides and oligonucleotides, which are lipophilic and have a high content of boron atoms, are particularly suited for use in BNCT of urogenital cancer. Preferred compounds include 5-carboranyl-2'-deoxyuridine (CDU) and 5-o-carboranyl-1-(2-deoxy-2-fluoro-β-D-arabinofuranosyl)uracil (CFAU). […]

[2] = Urinary excretion of unchanged CDU and CDU glucuronide; type: in vivo, Sprague-Dawley rats
Experimental: (§1) On the morning of the experiment, rats were placed in individual metabolism cages. CDU […]) was administered intravenously in 0.1 ml of DMSO to the rats over a one minute period. Blood samples (0.35 ml) were collected prior to and at […], 2, 3, 4, 5, 6, 7 and 8 hour after CDU administration from the cannula into heparinized polypropylene microcentrifuge tubes. Blood volume was replaced with an equal volume of normal saline. Blood samples were immediately centrifuged at 2000 g for 5 minutes and plasma was separated and frozen at -20° C. until analysis. Urine was collected for 24 hour following CDU administration. Urine volume was measured and samples were frozen at -20° C. until analysis.
For the determination of unchanged CDU in urine, urine samples were diluted 1:50 with distilled deionized water and 100 μl of internal standard (50 μg/ml progesterone) was added and injected onto the HPLC. Concentrations of CDU glucuronide in urine were determined after hydrolyzing the glucuronate with β-glucuronidase as previously described. Glucuronide concentrations were calculated as the difference between CDU concentrations measured after hydrolysis and before hydrolysis with β-glucuronidase.

[3] = Brain uptake of CDU after loading dose and three hour intravenous infusion; type: in vivo, Sprague-Dawley rats
Experimental: Two adult male sprague-dawley rats weighing 305 and 312 g were used to examine the brain uptake of CDU. A loading dose of 5 mg/kg CDU in […] of DMSO was administered intravenously over a one minute period followed by three hour infusion of CDU at the rate of 5 mg/h/kg (50 μl/h) using an infusion […]. At the end of infusion blood samples were collected and rats were sacrificed. The brains were dissected and frozen at -20° C. until analysis.
(§2) Concentrations of CDU in plasma, brain, and urine were determined by HPLC. For the determination of CDU in brain, the brain tissue was homogenized in a 1:2 (g:ml) ratio with isotonic sodium phosphate buffer, pH 7.4. To 200 μl of plasma or brain homogenate in a glass test tube, 50 μl of internal standard (20 μg/ml progesterone) and 5 ml of methylene chloride was added. Tubes were shaken for 15 minutes at low speed on a shaker, centrifuged for 5 minutes at 2000 rpm, and the plasma layer was aspirated off using a vacuum system. The remaining methylene chloride was transferred to a glass culture tube and evaporated to dryness under a stream of nitrogen gas at ambient temperature. The residue was reconstituted with 250 μl of methanol and injected onto HPLC system.

[4] = Pharmacokinetics of CDU in plasma after intravenous administration of 25 mg/kg to rats; type: in vivo, Sprague-Dawley rats
Experimental: 5-Carboranyl-2'-deoxyuridine (CDU) was synthesized by the method of Yamamoto, et al. The chemical purity, confirmed by ^1 H NMR spectral and high-pressure liquid chromatography (HPLC) analysis, was greater than 98%. For intravenous administration, CDU was dissolved in dimethylsulfoxide (DMSO). Internal standard, progesterone, and β-glucuronidase were purchased from Sigma Chemical Company (St. Louis, Mo.). Methanol, HPLC grade, and all other chemicals, analytical grade, were obtained from J. T. Baker (Phillipsburg, N.J.). Partition coefficients were determined one hour after administration.
Five adult male Sprague-Dawley (Harlan Laboratories, Indianapolis, Ind.) rats weighing 303±8 g (mean±SD) were used for the pharmacokinetic study. Rats were housed in a 12 hour light/12 hour dark, constant temperature (22° C.) environment with free access to standard laboratory chow and water. Animals were acclimatized to this environment for one week before the experiment. External jugular vein cannulas were implanted under ketamine:acepromazine:xylazine (50:3.3:3.3 mg/kg) anesthesia the day before the experiment. Rats were fasted overnight, however, water was available ad libitum.
as §1, §2
Chromatography was performed on a Hypersil ODC column (5 μm particle size, 4.6×150 mm; Alltech Associates Inc., Deerfield, Ill.) with an online guard column and an isocratic mobile phase of 65% methanol in 10 mM monobasic potassium phosphate, pH 6.3 at a flow rate of 1.5 ml/min. Compounds were detected at a UV wavelength of 274 nm with a detector range setting of 0.005 absorbance units, full scale.
The retention times of CDU and internal standard were 4.7 and 8.6 min, respectively. Sample CDU concentrations were calculated from the slope of calibration plots of the peak area ratio of CDU:internal standard versus standard CDU concentrations. The slopes and intercepts were generated using weighted (1/x^2) least-squares regression analysis. Standard curves were linear in the range of 0.1 μg/ml to 50 μg/ml. The intra- and inter-day relative standard deviations over the range of standard concentrations in all biological media were less than 10%. The extraction recoveries of CDU and progesterone were 99% and 95%, respectively.
Area/moment analysis was used to calculate pharmacokinetic parameters of CDU. […]

[5] = i.v. infusion to steady state, each of two rats, 5 mg/kg, 180 min
[6] = 25 mg/kg i.v., rats, total plasma concentrations, 25 mg/kg
[7] = 25 mg/kg i.v., individual rat, 25 mg/kg
[8] = 25 mg/kg i.v., individual rat, unbound
[9] = 25 mg/kg i.v., mean of five rats
[10] = 25 mg/kg i.v., mean of five rats, unbound

## 5-carboranyl-2'-deoxyuridine [CDU]
[1]
  intracellular phosphorylation in PBM cells (in words): intracellularly phosphorylated
  uptake by PBM cells (in words): taken up
[2]; 24 hours following 25 mg/kg i.v.
  unchanged CDU in urine (in words): No unchanged CDU was detected in urine; also recorded: No unchanged CDU was recovered in urine
[2]; rat
  renal excretion (in words): not renally excreted to any significant extent
[2]; rat, inferred from absence of unchanged CDU in urine
  renal tubular reabsorption (in words): virtually complete renal tubular reabsorption
[2]; urine treated with β-glucuronidase, 25 mg/kg i.v., 25 mg/kg
  CDU glucuronide in urine (in words): no trace of CDU glucuronide in urine; also recorded: no glucuronide metabolites were detected in urine samples
[3]; i.v. infusion to steady state, each of two rats
  brain:unbound plasma CDU ratio: 10.26 and 7.87
[3]; [5]
  brain CDU concentration: 2.77 µg/mL and 1.81 µg/mL
  brain:total plasma CDU concentration ratio: 0.47 and 0.36
  total plasma CDU concentration: 5.92 µg/mL and 5.01 µg/mL
[3]; i.v. infusion to steady state, two rats, 5 mg/kg, 180 min
  brain concentrations as % of total plasma CDU concentrations: 36 to 47%
[3]; unbound compared to total
  brain:plasma ratio based on unbound vs total plasma concentrations: 20 fold
[4]; 25 mg/kg i.v., rats
  decline of plasma concentrations (in words): declined in a biexponential fashion
  volume of distribution based on unbound CDU concentrations: 15.5 kg⁻¹
[4]; 25 mg/kg i.v., rats, average
  clearance based on unbound plasma CDU concentrations (CLf): 255.5 ± 74 mL/min/kg and 255 mL/min/kg
[4]; 25 mg/kg i.v., rats, mean±SD
  terminal half-life: 1.26 ± 0.28 h
[4]; [6]
  steady-state volume of distribution: 0.70 ± 0.23 kg⁻¹ and 0.7 kg⁻¹
  total clearance: 11.5 ± 3.3 mL/min/kg and 11.5 mL/min/kg
[4]; [7]
  AUC, individual rats: 32.39 mg h 1^-1 and 25.14 mg h 1^-1 and 44.68 mg h 1^-1 and 42.49 mg h 1^-1 and 47.28 mg h 1^-1
  CLT, individual rats: 0.77 1 h^-1 kg^-1 and 0.99 1 h^-1 kg^-1 and 0.56 1 h^-1 kg^-1 and 0.59 1 h^-1 kg^-1 and 0.53 1 h^-1 kg^-1
  MRT, individual rats: 1.17 h and 0.51 h and 0.81 h and 1.64 h and 1.24 h
  V33 (steady-state volume of distribution), individual rats: 0.90 1 kg^-1 and 0.51 1 kg^-1 and 0.45 1 kg^-1 and 0.97 1 kg^-1 and 0.65 1 kg^-1
  t1/2, individual rats: 1.46 h and 1.20 h and 0.81 h and 1.54 h and 1.28 h
[4]; [8]
  CLf, individual rats: 17.15 1 h^-1 kg^-1 and 22.33 1 h^-1 kg^-1 and 12.36 1 h^-1 kg^-1 and 13.07 1 h^-1 kg^-1 and 11.76 1 h^-1 kg^-1
  Vss,f, individual rats: 20.02 1 kg^-1 and 11.29 1 kg^-1 and 10.09 1 kg^-1 and 21.56 1 kg^-1 and 14.53 1 kg^-1
[4]; [9]
  AUC, mean: 38.39 mg h 1^-1
  MRT, mean: 1.07 h
  V33 (steady-state volume of distribution), mean: 0.70 1 kg^-1
  t1/2, mean: 1.26 h
[4]; [10]
  CLf, mean: 15.33 1 h^-1 kg^-1
  Vss,f, mean: 15.50 1 kg^-1
[4]; estimated, unbound drug
  metabolic intrinsic clearance of free drug: 333 mL/min/kg

— US5872107A, “Treatment of urogenital cancer with boron neutron capture therapy” (Emory University, priority 1997, dated 1999)
